According to patent publication US6150385A, “1,3,4-thiadiazoles useful for the treatment of CMV infections” (Pharmacia & Upjohn Company, priority 1999, dated 2000):

Biological target: T1, HCMV polymerase (Human cytomegalovirus, UniProt P08546)
T1 construct: made in house; host or cells: SF-9 insect cells infected with recombinant baculovirus
Test: HCMV polymerase assay (scintillation proximity assay)
Type: biochemical
Settings: percentage of inhibition at 25 μM concentration in CMV polymerase assay
In short: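 Baculovirus/SF-9-expressed HCMV polymerase in 5.4 mM HEPES pH 7.5, 11.7 mM KCl, 4.5 mM MgCl2, 0.36 mg/ml BSA, 90 nM 3H-dTTP, with or without 2 mM CHAPS. Started with 6 nM biotinylated poly(dA)-oligo(dT), 30 min at 25 or 37 °C, EDTA-stopped, read by streptavidin-SPA counting; % inhibition at 25 μM.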

T1 sequence (P08546 whole entry): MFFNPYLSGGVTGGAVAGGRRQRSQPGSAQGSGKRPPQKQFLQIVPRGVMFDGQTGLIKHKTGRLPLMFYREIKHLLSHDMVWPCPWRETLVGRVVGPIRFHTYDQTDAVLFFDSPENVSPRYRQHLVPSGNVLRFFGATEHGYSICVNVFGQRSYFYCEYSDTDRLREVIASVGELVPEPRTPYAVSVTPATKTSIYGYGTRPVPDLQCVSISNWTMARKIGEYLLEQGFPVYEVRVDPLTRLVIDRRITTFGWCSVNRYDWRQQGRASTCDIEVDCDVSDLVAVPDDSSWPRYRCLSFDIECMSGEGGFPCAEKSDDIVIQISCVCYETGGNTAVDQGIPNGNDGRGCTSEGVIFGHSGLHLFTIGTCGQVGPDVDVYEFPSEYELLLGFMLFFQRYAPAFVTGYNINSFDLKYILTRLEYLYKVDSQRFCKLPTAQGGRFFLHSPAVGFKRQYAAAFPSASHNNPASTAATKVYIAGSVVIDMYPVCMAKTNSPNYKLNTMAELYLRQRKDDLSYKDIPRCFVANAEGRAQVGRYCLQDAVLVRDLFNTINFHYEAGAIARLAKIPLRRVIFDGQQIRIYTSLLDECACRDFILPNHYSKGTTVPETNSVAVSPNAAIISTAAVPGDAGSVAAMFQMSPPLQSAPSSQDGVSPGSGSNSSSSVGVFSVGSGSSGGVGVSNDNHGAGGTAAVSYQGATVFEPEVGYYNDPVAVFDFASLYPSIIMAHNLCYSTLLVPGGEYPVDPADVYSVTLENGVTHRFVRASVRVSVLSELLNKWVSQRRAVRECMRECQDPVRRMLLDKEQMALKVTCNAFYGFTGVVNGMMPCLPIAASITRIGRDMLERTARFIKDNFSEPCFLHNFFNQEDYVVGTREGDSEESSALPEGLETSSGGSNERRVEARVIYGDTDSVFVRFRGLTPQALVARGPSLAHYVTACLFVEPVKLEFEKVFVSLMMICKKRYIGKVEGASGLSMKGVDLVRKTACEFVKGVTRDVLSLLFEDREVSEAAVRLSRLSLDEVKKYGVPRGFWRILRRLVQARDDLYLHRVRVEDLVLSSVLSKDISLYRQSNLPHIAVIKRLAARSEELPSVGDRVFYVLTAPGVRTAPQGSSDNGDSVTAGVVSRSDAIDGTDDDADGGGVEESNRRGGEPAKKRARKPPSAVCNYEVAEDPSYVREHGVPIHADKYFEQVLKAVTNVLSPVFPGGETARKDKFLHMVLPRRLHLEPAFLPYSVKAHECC

Row | inhibition at 25 µM [%] | SMILES
1 | 35.1 | O=C(Nc1nnc(NCCCN2CCCC2=O)s1)c1ccc([N+](=O)[O-])o1 [compound 296, 5-nitro-N-(5-{[3-(2-oxo-1-pyrrolidinyl)propyl]amino}-1,3,4-thiadiazol-2-yl)-2-furamide]
2 | 35 | O=C(Nc1nnc(NCCC(c2ccccc2)c2ccccc2)s1)c1ccc(I)cc1 [compound 297, N-{5-[(3,3-diphenylpropyl)amino]-1,3,4-thiadiazol-2-yl}-4-iodobenzamide]
3 | 35 | O=C(Nc1nnc(NCCC(c2ccccc2)c2ccccc2)s1)c1ccc([N+](=O)[O-])o1 [compound 298, N-{5-[(3,3-diphenylpropyl)amino]-1,3,4-thiadiazol-2-yl}-5-nitro-2-furamide]
4 | 34.9 | CC(C)c1cc(C(C)C)c(C(=O)Nc2nnc(NCCC(c3ccccc3)c3ccccc3)s2)c(C(C)C)c1 [compound 299, N-{5-[(3,3-diphenylpropyl)amino]-1,3,4-thiadiazol-2-yl}-2,4,6-triisopropylbenzamide]
5 | 34.9 | O=C(Nc1nnc(NC2CCCCCC2)s1)c1cc(F)cc(F)c1 [compound 300, N-[5-(cycloheptylamino)-1,3,4-thiadiazol-2-yl]-3,5-difluorobenzamide]
6 | 34.8 | O=C(Nc1nnc(NCc2cccnc2)s1)c1cc2ccccc2s1 [compound 301, N-{5-[(3-pyridinylmethyl)amino]-1,3,4-thiadiazol-2-yl}-1-benzothiophene-2-carboxamide]
7 | 34.8 | O=C(Nc1nnc(NCc2ccc(F)cc2)s1)c1cccc([N+](=O)[O-])c1 [compound 302, N-{5-[(4-fluorobenzyl)amino]-1,3,4-thiadiazol-2-yl}-3-nitrobenzamide]
8 | 34.7 | COc1ccccc1C(=O)Nc1nnc(NCCc2c[nH]c3ccccc23)s1 [compound 303, N-(5-{[2-(1H-indol-3-yl)ethyl]amino}-1,3,4-thiadiazol-2-yl)-2-methoxybenzamide]
9 | 34.6 | COc1ccccc1C(=O)Nc1nnc(NCC2CCCCC2)s1 [compound 304, N-{5-[(cyclohexylmethyl)amino]-1,3,4-thiadiazol-2-yl}-2-methoxybenzamide]
10 | 34.5 | O=C(Nc1nnc(NCc2ccc3c(c2)OCO3)s1)c1ccc(F)cc1F [compound 305, N-{5-[(1,3-benzodioxol-5-ylmethyl)amino]-1,3,4-thiadiazol-2-yl}-2,4-difluorobenzamide]
11 | 34.4 | O=C(Nc1nnc(NCC(c2ccccc2)c2ccccc2)s1)c1ccc([N+](=O)[O-])o1 [compound 306, N-{5-[(2,2-diphenylethyl)amino]-1,3,4-thiadiazol-2-yl}-5-nitro-2-furamide]
12 | 34.2 | CC1(C)C2CC[C@@H](CNc3nnc(NC(=O)c4ccc(C#N)cc4)s3)C1C2 (stereo partly drawn) [compound 307, 4-cyano-N-[5-({[(2R)-6,6-dimethylbicyclo[3.1.1]hept-2-yl]methyl}amino)-1,3,4-thiadiazol-2-yl]benzamide]
13 | 34.2 | O=C(Nc1nnc(NCCc2ccccc2)s1)c1ccc(Cl)cc1Cl [compound 308, 2,4-dichloro-N-[5-(phenethylamino)-1,3,4-thiadiazol-2-yl]benzamide]
14 | 34 | CCSCCNc1nnc(NC(=O)c2ccc(Br)cc2)s1 [compound 309, 4-bromo-N-(5-{[2-(ethylsulfanyl)ethyl]amino}-1,3,4-thiadiazol-2-yl)benzamide]
15 | 34 | COc1ccccc1C(=O)Nc1nnc(NC2CCCCCC2)s1 [compound 310, N-[5-(cycloheptylamino)-1,3,4-thiadiazol-2-yl]-2-methoxybenzamide]
16 | 33.9 | NS(=O)(=O)c1ccc(CNc2nnc(NC(=O)c3ccc(Cl)c(Cl)c3)s2)cc1 [compound 311, N-(5-{[4-(aminosulfonyl)benzyl]amino}-1,3,4-thiadiazol-2-yl)-3,4-dichlorobenzamide]
17 | 33.9 | CC1(C)C2CC[C@@H](CNc3nnc(NC(=O)CCCCCl)s3)C1C2 (stereo partly drawn) [compound 312, 5-chloro-N-[5-({[(2R)-6,6-dimethylbicyclo[3.1.1]hept-2-yl]methyl}amino)-1,3,4-thiadiazol-2-yl]pentanamide]
18 | 33.9 | CCCCCCCC/C=C/CCCCCCCC(=O)Nc1nnc(NCc2ccc(Cl)c(Cl)c2)s1 [compound 313, (E)-N-{5-[(3,4-dichlorobenzyl)amino]-1,3,4-thiadiazol-2-yl}-9-octadecenamide]
19 | 33.8 | CCOc1ccc2ccccc2c1C(=O)Nc1nnc(NC2CCC2)s1 [compound 314, N-[5-(cyclobutylamino)-1,3,4-thiadiazol-2-yl]-2-ethoxy-1-naphthamide]
20 | 33.8 | O=C(CCCCCl)Nc1nnc(NCC2CCCCC2)s1 [compound 315, 5-chloro-N-{5-[(cyclohexylmethyl)amino]-1,3,4-thiadiazol-2-yl}pentanamide]
21 | 33.6 | O=C(CCCCCl)Nc1nnc(NC2CCCCCC2)s1 [compound 316, 5-chloro-N-[5-(cycloheptylamino)-1,3,4-thiadiazol-2-yl]pentanamide]

Row | inhibition at 25 µM [%] | SMILES
22 | 33.6 | CC(C)c1cc(C(C)C)c(C(=O)Nc2nnc(NCCc3c[nH]cn3)s2)c(C(C)C)c1 [compound 317, N-(5-{[2-(1H-imidazol-4-yl)ethyl]amino}-1,3,4-thiadiazol-2-yl)-2,4,6-triisopropylbenzamide]
23 | 33.6 | CCOc1ccc2ccccc2c1C(=O)Nc1nnc(NCCSCC)s1 [compound 318, 2-ethoxy-N-(5-{[2-(ethylsulfanyl)ethyl]amino}-1,3,4-thiadiazol-2-yl)-1-naphthamide]
24 | 33.5 | CC(C)(C)CNc1nnc(NC(=O)/C=C/c2ccccc2Cl)s1 [compound 319, (E)-3-(2-chlorophenyl)-N-[5-(neopentylamino)-1,3,4-thiadiazol-2-yl]-2-propenamide]
25 | 33.5 | CC1(C)C2CC[C@@H](CNc3nnc(NC(=O)/C=C/c4ccccc4Cl)s3)C1C2 (stereo partly drawn) [compound 320, (E)-3-(2-chlorophenyl)-N-[5-({[(2R)-6,6-dimethylbicyclo[3.1.1]hept-2-yl]methyl}amino)-1,3,4-thiadiazol-2-yl]-2-propenamide]
26 | 33.2 | O=C(CCCCCl)Nc1nnc(NCc2ccc(F)cc2)s1 [compound 321, 5-chloro-N-{5-[(4-fluorobenzyl)amino]-1,3,4-thiadiazol-2-yl}pentanamide]
27 | 33.2 | O=C(/C=C/c1ccccc1Cl)Nc1nnc(NCCSc2ccccc2)s1 [compound 322, (E)-3-(2-chlorophenyl)-N-(5-{[2-(phenylsulfanyl)ethyl]amino}-1,3,4-thiadiazol-2-yl)-2-propenamide]
28 | 33 | Cc1ccc(C(=O)Nc2nnc(NC3CCCCCC3)s2)cc1 [compound 323, N-[5-(cycloheptylamino)-1,3,4-thiadiazol-2-yl]-4-methylbenzamide]
29 | 32.9 | O=C(Nc1nnc(NCCCn2ccnc2)s1)c1ccc(I)cc1 [compound 324, N-(5-{[3-(1H-imidazol-1-yl)propyl]amino}-1,3,4-thiadiazol-2-yl)-4-iodobenzamide]
30 | 32.8 | O=C(CCCCCl)Nc1nnc(NCCCN2CCCC2=O)s1 [compound 325, 5-chloro-N-(5-{[3-(2-oxo-1-pyrrolidinyl)propyl]amino}-1,3,4-thiadiazol-2-yl)pentanamide]
31 | 32.7 | O=C(/C=C/c1ccccc1)Nc1nnc(NCc2ccc(F)cc2)s1 [compound 326, (E)-N-{5-[(4-fluorobenzyl)amino]-1,3,4-thiadiazol-2-yl}-3-phenyl-2-propenamide]
32 | 32.5 | COc1ccccc1C(=O)Nc1nnc(NCCc2ccccc2)s1 [compound 327, 2-methoxy-N-[5-(phenethylamino)-1,3,4-thiadiazol-2-yl]benzamide]
33 | 32.4 | CCOc1ccc2ccccc2c1C(=O)Nc1nnc(NCCc2ccc(S(N)(=O)=O)cc2)s1 [compound 328, N-(5-{[4-(aminosulfonyl)phenethyl]amino}-1,3,4-thiadiazol-2-yl)-2-ethoxy-1-naphthamide]
34 | 32.4 | O=C(/C=C/c1ccccc1)Nc1nnc(NCc2cccc3ccccc23)s1 [compound 329, (E)-N-{5-[(1-naphthylmethyl)amino]-1,3,4-thiadiazol-2-yl}-3-phenyl-2-propenamide]
35 | 32.2 | O=C(Nc1nnc(NCCc2c[nH]cn2)s1)c1cc2ccccc2s1 [compound 330]
36 | 32.1 | O=C(/C=C/c1ccccc1)Nc1nnc(NCCC(c2ccccc2)c2ccccc2)s1 [compound 331, (E)-N-{5-[(3,3-diphenylpropyl)amino]-1,3,4-thiadiazol-2-yl}-3-phenyl-2-propenamide]
37 | 32 | CC(=O)NCCNc1nnc(NC(=O)c2c(C(C)C)cc(C(C)C)cc2C(C)C)s1 [compound 332, N-(5-{[2-(acetylamino)ethyl]amino}-1,3,4-thiadiazol-2-yl)-2,4,6-triisopropylbenzamide]
38 | 31.9 | O=C(/C=C/c1ccccc1)Nc1nnc(NCc2ccc(Cl)c(Cl)c2)s1 [compound 333, (E)-N-{5-[(3,4-dichlorobenzyl)amino]-1,3,4-thiadiazol-2-yl}-3-phenyl-2-propenamide]
39 | 31.8 | COc1ccccc1C(=O)Nc1nnc(NCc2cccc3ccccc23)s1 [compound 334, 2-methoxy-N-{5-[(1-naphthylmethyl)amino]-1,3,4-thiadiazol-2-yl}benzamide]
40 | 31.7 | N#Cc1ccc(C(=O)Nc2nnc(NCCc3ccc(S(N)(=O)=O)cc3)s2)cc1 [compound 335, N-(5-{[4-(aminosulfonyl)phenethyl]amino}-1,3,4-thiadiazol-2-yl)-4-cyanobenzamide]
41 | 31.6 | CCCCCCCC/C=C/CCCCCCCC(=O)Nc1nnc(NCCc2ccc(S(N)(=O)=O)cc2)s1 [compound 336, (E)-N-(5-{[4-(aminosulfonyl)phenethyl]amino}-1,3,4-thiadiazol-2-yl)-9-octadecenamide]
